According to patent publication US8569280B2, “Methods for the treatment of multiple myeloma” (Immune Disease Institute, priority 2005, dated 2013):

Legend:
[1] = test system: 5T33mM cells; conditions: recipient mice treated with inhibitor
Protocol: AMD3100 and PBS is implanted, and the survival rate after 2 hours, 24 hours and 6 days is measured.
5T33mM cells, obtained as described above, are injected into recipient mice.

[2] = test system: MM cells; test: transwell migration assay of MM cells toward SDF-1; type: cell-based
Protocol: AMD3100 was evaluated in amounts of 0-100 μM with all wells containing 20 nM SDF-1 in the lower chambers. […] 10 μM of anti-CXCR4MAB171 antibody inhibited migration to 53%, and 200 μM of MAB171 inhibited migration to 35% compared to a control (P=0.007).
The transwell migration assay was used to test the effect of the CXCR4 inhibitor AMD3100 on the migration of MM cells.
Similarly, the transwell migration assay was used to test the effect of the anti-CXCR 4 antibody MAB171 (10-800 μM) for 16 hours and its IgG2a isotype control on the in vitro migration of MM cells. […] Anti-CXCR4MAB171 inhibited 10 μM migration to 53%, and 200 μM migration to 35% compared with the control (P=0.007).

[3] = test system: 5T33mM cells; test: survival and serum IgG2b of mice injected with 5T33mM cells; type: in vivo, mouse; conditions: subcutaneous osmotic pump, 25 mg/mL, 0.5 μl/hr, 21 days, started at the time of cell injection; versus PBS
Protocol: FIG. 5 is a graph showing the survival of C57BL/6 mice after injection with 10×10^6 5T33^eGFP cells. Osmotic pumps are installed at the time of injection, and either AMD3100 or PBS is implanted. The osmotic pumps are changed every 7 days, and the pump administration is discontinued after 21 days.
AMD3100 is delivered via a subcutaneous osmotic pump at a concentration of 25 mg/mL and a delivery rate of 0.5 μl/hr. The osmotic devices delivered the drug for 21 days.

c1cc(CN2CCCNCCNCCCNCC2)ccc1CN1CCCNCCNCCCNCC1 [AMD3100]
homing of 5T33mM cells to bone marrow ([1]; 2 hours): does not affect | retention of 5T33mM cells in bone marrow ([1]; 24 hours): does not affect | proliferation/survival of 5T33mM cells in bone marrow ([1]; 6 days): significantly reduces | inhibition at 10 µM ([2]; 10 μM AMD3100, 16 hours, 20 nM SDF-1 in lower chambers, read-out: inhibition of migration of MM cells compared with control): 70% | dose dependence of inhibition of MM cell migration ([2]; AMD3100 0-100 μM, MAB171 0-400 μg/mL or 10-800 μM, 16 hours): dose-dependent inhibition of migration | inhibition of migration at doses higher than 10 μM ([2]; AMD3100 above 10 μM up to 100 μM, 16 hours): did not induce further inhibition of migration | survival of mice injected with 5T33 cells [3]: an increase in survival is observed
